US10624949B1, “Methods for treating diseases related to the wnt pathway” (priority 2015, dated 2020)
“Also recorded” adds a separate entry of the source.

What was measured:
[1] = test system: RVFV MP12-induced β-catenin transcriptional activity; type: cell-based, human
RVFV MP12-GFP [2] = assay: microbe, parasite or virus in culture; type: cell-based, Rift Valley fever virus; details: for inhibition at 10 µM: Rift Valley fever virus, Hepatocyte, read-out: inhibition of RVFV MP12-GFP infection
RVFV MP12-GFP [3] = type: cell-based, Rift Valley fever virus
[4] = test system: Wnt3A-induced β-catenin luc reporter expression; type: cell-based, human
VacV = type: cell-based, Vaccinia virus
VSV [5] = type: cell-based, Vesicular Stomatitis virus
[6] = test system: cellular models of cancer survival; details: preclinical studies; cited from earlier work
RVFV MP12 = type: cell-based, Rift Valley fever virus
LCV = type: cell-based, La Crosse virus
wild-type RVFV = type: cell-based, Rift Valley fever virus
CEV = type: cell-based, California encephalitis virus
[7] = test system: wild-type RVFV strain ZH-501; type: cell-based, Rift Valley fever virus
VSV [8] = type: cell-based, Vesicular Stomatitis virus; remark: listed apart in the source
RVFV MP12-GFP [9] = type: cell-based, Rift Valley fever virus; remark: listed apart in the source

Molecule	RVFV MP12-induced β-catenin reporter activity [1]	RVFV MP12-GFP infection, inhibitor 1 hour prior to and during initial infection, removed after 3 hours (pre-treat) (RVFV MP12-GFP [3])	RVFV MP12-GFP infection, inhibitor added 1 hpi (post-treat) (RVFV MP12-GFP [3])	Wnt3A-induced β-catenin luc reporter activity [4]	infection of RVFV MP12-GFP (relative percent infection) (RVFV MP12-GFP [2])	infection of VacV (relative percent infection) (VacV)	infection of VSV (relative percent infection) (VSV [5])	also measured
CO/C1=C\C(C)=C\[C@@H](C)[C@@H](O)[C@@H](C)C/C(C)=C/C=C/[C@H](OC)[C@@H]([C@@H](C)[C@@H](O)[C@H](C)[C@@]2(O)C[C@@H](O)[C@H](C)[C@@H](C(C)C)O2)OC1=O [BAF]	blocked	–	–	–	–	–	–	–
O=C(Nc1cccc2cccnc12)c1ccc(N2C(=O)[C@@H]3[C@H](C2=O)[C@@H]2C=C[C@H]3C2)cc1 [Endo-IWR-1, 4-[(3aR,4S,7R,7aS)-1,3-dioxo-1,3,3a,4,7,7a-hexahydro-2H-4,7-methanoisoindol-2-yl]-N-(quinolin-8-yl)benzamide]	inhibited	little to no effect	significantly inhibit	inhibited	–	–	–	inhibition at 10 µM (RVFV MP12-GFP [2]): > 50%
Cc1cc([N+](=O)[O-])ccc1NS(=O)(=O)c1cc(Cl)ccc1Cl [FH535, 2,5-dichloro-N-(2-methyl-4-nitrophenyl)benzenesulfonamide]	inhibited	little to no effect	significantly inhibit	inhibited	reduced	did not diminish	did not diminish	–
COc1ccc(C2(CNC(=O)c3ccc(NC(=O)c4ccco4)cc3)CCOCC2)cc1 [JW55, N-[4-[[4-(4-methoxyphenyl)oxan-4-yl]methylcarbamoyl]phenyl]furan-2-carboxamide]	–	–	–	–	–	–	–	efficacy in cellular models of cancer survival [6]: demonstrated efficacy
O=C1Nc2ccccc2C12OCC1(CO2)COC2(OC1)C(=O)Nc1ccccc12 (stereo not drawn) [JW67, trispiro[3H-indole-3,2′-[1,3]dioxane-5′,5″-[1,3]dioxane-2″,3′″-[3H]indole]-2,2′″(1H,1′″H)-dione]	inhibited	little to no effect	significantly inhibit	inhibited	–	none of the inhibitors that stabilized the DC affected	none of the inhibitors that stabilized the DC affected	inhibition at 10 µM (RVFV MP12-GFP [2]): > 50%; RVFV MP12 viral titers by plaque assay (RVFV MP12): significant decrease; LCV infection / viral titers by plaque assay (LCV): significantly reduced; wild-type RVFV viral titers by plaque assay (wild-type RVFV): significant decrease; also recorded: significantly reduced; CEV infection / viral titers by plaque assay (CEV): significantly reduced
CN(C)c1ccc(/C=C/c2c(F)cccc2F)cc1 [Wnt XII, (E)-4-(2,6-difluorostyryl)-N,N-dimethylaniline]	inhibited	little to no effect	significantly inhibit	inhibited	reduced	did not diminish	did not diminish	–
O=c1nc(-c2ccc(C(F)(F)F)cc2)[nH]c2c1CSCC2 [XAV939, 2-[4-(trifluoromethyl)phenyl]-1,5,7,8-tetrahydrothiopyrano[4,3-d]pyrimidin-4-one]	–	–	–	–	–	–	–	efficacy in cellular models of cancer survival [6]: demonstrated efficacy
Cc1cc(/C=C2\SC(=O)N(c3ccccc3)C2=O)c(C)n1-c1cccnc1 [iCRT-14, (5Z)-5-[(2,5-dimethyl-1-pyridin-3-ylpyrrol-3-yl)methylidene]-3-phenyl-1,3-thiazolidine-2,4-dione]	inhibited	little to no effect	significantly inhibit	inhibited	reduced	did not diminish	did not diminish	RVFV MP12 viral titers by plaque assay (RVFV MP12): significant decrease; wild-type RVFV viral titers by plaque assay (wild-type RVFV): significant decrease
WIF-1	no effect	no effect	no effect	dose-dependent reduction	unable to reduce infection	unable to reduce infection	unable to reduce infection	–
Wnt3A (protein, UniProt P56704 19-352, looked up) Protein Wnt-3a: SYPIWWSLAVGPQYSSLGSQPILCASIPGLVPKQLRFCRNYVEIMPSVAEGIKIGIQECQHQFRGRRWNCTTVHDSLAIFGPVLDKATRESAFVHAIASAGVAFAVTRSCAEGTAAICGCSSRHQGSPGKGWKWGGCSEDIEFGGMVSREFADARENRPDARSAMNRHNNEAGRQAIASHMHLKCKCHGLSGSCEVKTCWWSQPDFRAIGDFLKDKYDSASEMVVEKHRESRGWVETLRPRYTYFKVPTERDLVYYEASPNFCEPNPETGSFGTRDRTCNVSSHGIDGCDLLCCGRGHNARAERRREKCRCVFHWCCYVSCQECTRVYDVHTCK	–	–	–	–	–	–	–	wild-type RVFV infection (number of plaques) [7]: enhanced; VSV infection after Wnt3A pre-treatment (VSV [8]): remained unchanged; RVFV MP12-GFP viral infection after Wnt3A pre-treatment (RVFV MP12-GFP [9]): significantly enhanced; increase in RVFV MP12-GFP infection (RVFV MP12-GFP [9]): greater than 4.5 fold
DKK-1 (protein, UniProt O94907 32-266, looked up) Dickkopf-related protein 1: TLNSVLNSNAIKNLPPPLGGAAGHPGSAVSAAPGILYPGGNKYQTIDNYQPYPCAEDEECGTDEYCASPTRGGDAGVQICLACRKRRKRCMRHAMCCPGNYCKNGICVSSDQNHFRGEIEETITESFGNDHSTLDGYSRRTTLSSKMYHTKGQEGSVCLRSSDCASGLCCARHFWSKICKPVLKEGQVCTKHRRKGSHGLEIFQRCYCGEGLSCRIQKDHHQASNSSRLHTCQRH	no effect	no effect	no effect	dose-dependent reduction	unable to reduce infection	unable to reduce infection	unable to reduce infection	–
